Source: PubChem BioAssay (NCI)
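Compound exposure: 48 hours, 5 concentrations, 96-well plates. At the TGI there is no net growth.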

Assays:
Experiment in all cases: NCI tumour cell line growth inhibition, 48 h
IGROV1 ovarian = test system: IGROV1 ovarian
NCI-H460 lung = test system: NCI-H460 lung
M19-MEL melanoma = test system: M19-MEL melanoma
UACC-62 melanoma = test system: UACC-62 melanoma
HOP-62 NSCLC = test system: HOP-62 NSCLC
CCRF-CEM leukemia = test system: CCRF-CEM leukemia
HT29 colon = test system: HT29 colon
SNB-78 CNS = test system: SNB-78 CNS
MALME-3M melanoma = test system: MALME-3M melanoma
K-562 leukemia = test system: K-562 leukemia
COLO 205 colon = test system: COLO 205 colon
CAKI-1 renal = test system: CAKI-1 renal
A498 renal = test system: A498 renal
SF-295 CNS = test system: SF-295 CNS
ACHN renal = test system: ACHN renal
EKVX NSCLC = test system: EKVX NSCLC
OVCAR-3 ovarian = test system: OVCAR-3 ovarian
SW-620 colon = test system: SW-620 colon
UO-31 renal = test system: UO-31 renal
SNB-75 CNS = test system: SNB-75 CNS
SN12C renal = test system: SN12C renal
A549 NSCLC = test system: A549 NSCLC
HL-60(TB) leukemia = test system: HL-60(TB) leukemia
SK-OV-3 ovarian = test system: SK-OV-3 ovarian
U251 CNS = test system: U251 CNS
OVCAR-5 ovarian = test system: OVCAR-5 ovarian
SNB-19 CNS = test system: SNB-19 CNS
HOP-92 NSCLC = test system: HOP-92 NSCLC
TK-10 renal = test system: TK-10 renal
M14 melanoma = test system: M14 melanoma
DMS 273 small cell lung = test system: DMS 273 small cell lung
MOLT-4 leukemia = test system: MOLT-4 leukemia
NCI-H23 lung = test system: NCI-H23 lung
KM12 colon = test system: KM12 colon
RXF-631 renal = test system: RXF-631 renal
SF-539 CNS = test system: SF-539 CNS
LOX IMVI melanoma = test system: LOX IMVI melanoma
LXFL 529 NSCLC = test system: LXFL 529 NSCLC
HCT-15 colon = test system: HCT-15 colon
RXF 393 renal = test system: RXF 393 renal
SK-MEL-2 melanoma = test system: SK-MEL-2 melanoma
DMS 114 small cell lung = test system: DMS 114 small cell lung
SK-MEL-28 melanoma = test system: SK-MEL-28 melanoma
DLD-1 colon = test system: DLD-1 colon
SF-268 CNS = test system: SF-268 CNS
SK-MEL-5 melanoma = test system: SK-MEL-5 melanoma
NCI-H522 lung = test system: NCI-H522 lung
786-0 renal = test system: 786-0 renal
UACC-257 melanoma = test system: UACC-257 melanoma
OVCAR-8 ovarian = test system: OVCAR-8 ovarian
RPMI-8226 leukemia = test system: RPMI-8226 leukemia
OVCAR-4 ovarian = test system: OVCAR-4 ovarian
XF 498 CNS = test system: XF 498 CNS
HCC-2998 colon = test system: HCC-2998 colon
HCT-116 colon = test system: HCT-116 colon
SR leukemia = test system: SR leukemia
KM20L2 colon = test system: KM20L2 colon
NCI-H226 lung = test system: NCI-H226 lung

OC1CC1Sc1ccccc1 (stereo not drawn)
TGI (IGROV1 ovarian): 60.1 µM | TGI (NCI-H460 lung): > 100 µM | TGI (M19-MEL melanoma): > 100 µM | TGI (UACC-62 melanoma): > 100 µM | TGI (HOP-62 NSCLC): > 100 µM | TGI (CCRF-CEM leukemia): > 100 µM | TGI (HT29 colon): > 100 µM | TGI (SNB-78 CNS): > 100 µM | TGI (MALME-3M melanoma): > 100 µM | TGI (K-562 leukemia): > 100 µM | TGI (COLO 205 colon): > 100 µM | TGI (CAKI-1 renal): > 100 µM | TGI (A498 renal): > 100 µM | TGI (SF-295 CNS): 69.4 µM | TGI (ACHN renal): > 100 µM | TGI (EKVX NSCLC): > 100 µM | TGI (OVCAR-3 ovarian): 78.7 µM | TGI (SW-620 colon): 78.4 µM | TGI (UO-31 renal): 33.6 µM | TGI (SNB-75 CNS): > 100 µM | TGI (SN12C renal): 61.7 µM | TGI (A549 NSCLC): > 100 µM | TGI (HL-60(TB) leukemia): 39.6 µM | TGI (SK-OV-3 ovarian): > 100 µM | TGI (U251 CNS): > 100 µM | TGI (OVCAR-5 ovarian): > 100 µM | TGI (SNB-19 CNS): > 100 µM | TGI (HOP-92 NSCLC): > 100 µM | TGI (TK-10 renal): > 100 µM | TGI (M14 melanoma): > 100 µM | TGI (DMS 273 small cell lung): > 100 µM | TGI (MOLT-4 leukemia): 91.7 µM | TGI (NCI-H23 lung): > 100 µM | TGI (KM12 colon): > 100 µM | TGI (RXF-631 renal): > 100 µM | TGI (SF-539 CNS): 46.4 µM | TGI (LOX IMVI melanoma): 71.1 µM | TGI (LXFL 529 NSCLC): 89.2 µM | TGI (HCT-15 colon): > 100 µM | TGI (RXF 393 renal): > 100 µM | TGI (SK-MEL-2 melanoma): > 100 µM | TGI (DMS 114 small cell lung): 74.4 µM | TGI (SK-MEL-28 melanoma): 57.3 µM | TGI (DLD-1 colon): > 100 µM | TGI (SF-268 CNS): 78.1 µM | TGI (SK-MEL-5 melanoma): > 100 µM | TGI (NCI-H522 lung): 39.8 µM | TGI (786-0 renal): 42.8 µM | TGI (UACC-257 melanoma): > 100 µM | TGI (OVCAR-8 ovarian): 92.7 µM | TGI (RPMI-8226 leukemia): 83.4 µM | TGI (OVCAR-4 ovarian): > 100 µM | TGI (XF 498 CNS): > 100 µM | TGI (HCC-2998 colon): > 100 µM | TGI (HCT-116 colon): 62.9 µM

O=c1cccccc1NCCCCCCCCNc1cccccc1=O
TGI (IGROV1 ovarian): > 100 µM | TGI (NCI-H460 lung): > 100 µM | TGI (M19-MEL melanoma): > 100 µM | TGI (UACC-62 melanoma): > 100 µM | TGI (HOP-62 NSCLC): > 100 µM | TGI (CCRF-CEM leukemia): > 100 µM | TGI (HT29 colon): > 100 µM | TGI (SNB-78 CNS): > 100 µM | TGI (MALME-3M melanoma): > 100 µM | TGI (K-562 leukemia): > 100 µM | TGI (COLO 205 colon): > 100 µM | TGI (SR leukemia): > 100 µM | TGI (CAKI-1 renal): > 100 µM | TGI (SF-295 CNS): > 100 µM | TGI (ACHN renal): > 100 µM | TGI (EKVX NSCLC): > 100 µM | TGI (OVCAR-3 ovarian): > 100 µM | TGI (SW-620 colon): > 100 µM | TGI (UO-31 renal): > 100 µM | TGI (KM20L2 colon): > 100 µM | TGI (SNB-75 CNS): > 100 µM | TGI (SN12C renal): > 100 µM | TGI (A549 NSCLC): > 100 µM | TGI (HL-60(TB) leukemia): > 100 µM | TGI (SK-OV-3 ovarian): > 100 µM | TGI (U251 CNS): > 100 µM | TGI (OVCAR-5 ovarian): > 100 µM | TGI (SNB-19 CNS): > 100 µM | TGI (HOP-92 NSCLC): 87.3 µM | TGI (M14 melanoma): > 100 µM | TGI (DMS 273 small cell lung): > 100 µM | TGI (MOLT-4 leukemia): > 100 µM | TGI (NCI-H23 lung): > 100 µM | TGI (KM12 colon): > 100 µM | TGI (RXF-631 renal): > 100 µM | TGI (SF-539 CNS): > 100 µM | TGI (LOX IMVI melanoma): > 100 µM | TGI (LXFL 529 NSCLC): > 100 µM | TGI (HCT-15 colon): > 100 µM | TGI (RXF 393 renal): > 100 µM | TGI (SK-MEL-2 melanoma): > 100 µM | TGI (DMS 114 small cell lung): > 100 µM | TGI (DLD-1 colon): > 100 µM | TGI (SF-268 CNS): > 100 µM | TGI (NCI-H522 lung): > 100 µM | TGI (786-0 renal): > 100 µM | TGI (UACC-257 melanoma): > 100 µM | TGI (OVCAR-8 ovarian): > 100 µM | TGI (NCI-H226 lung): > 100 µM | TGI (RPMI-8226 leukemia): > 100 µM | TGI (XF 498 CNS): > 100 µM | TGI (HCC-2998 colon): > 100 µM | TGI (HCT-116 colon): > 100 µM
